Test results from patent publication US20240294467A1, “USP9X Inhibitors” (ProDeg, LLC, priority 2021, published 2024).

Biological target: USP9X (Homo sapiens (Human), UniProt Q93008)
Assay: USP9X enzyme activity assay, ubiquitin-rhodamine110 substrate
Settings: Table 8
Experimental: The inhibition property of compound Compound 1A was evaluated in assays measuring the ability of USP9X to catalyze the hydrolysis of the amide bond between the C terminal carboxylate of ubiquitin and rhodamine110 of the fluorogenic substrate ubiquitin-rhodamine 110. To the wells of a 96 well reaction plate was added 12.5 μL USP9X solution (1.3 nM) in assay buffer (100 mM NaCl, 1 mM DTT, 0.1% bovine serum albumin, 0.05% Tween 20, 50 mM Tris, pH 7.5). 12.5 μL of Compound 1A in assay buffer (4×final concentration) was added to the wells containing the USP9X solution, and the solution was gently mixed by pipetting up and down several times. The plate was sealed and incubated at room temperature for 20 minutes.
Then 25 μL of the 1 μM substrate (ubiquitin-rhodaminel10) solution was added in assay buffer. The final substrate concentration was 0.5 μM. […] The slope for the rate of change of the fluorescence was determined and plotted vs the concentration of Compound 1A.
USP9X enzyme assays were set up in a 96 well plate to assess the abilities of Compound 3A and Compound 4A to inhibit the activity of USP9X, respectively. Ubiquitin-rhodamine110 was used as the substrate and ubiquitin aldehyde was included in the assay as a positive control.
Purified recombinant USPx9 (R&D Systems) in 50 mM Tris buffer pH 7.5, 1 mM DTT, 100 mM NaCl, 0.05% Tween 20 and 0/1% BSA is used at a concentration of 0.325 nM with 0.5 μM ubiquitin-rhodamine (R&D Systems).

Sequence of USP9X (Q93008 whole entry): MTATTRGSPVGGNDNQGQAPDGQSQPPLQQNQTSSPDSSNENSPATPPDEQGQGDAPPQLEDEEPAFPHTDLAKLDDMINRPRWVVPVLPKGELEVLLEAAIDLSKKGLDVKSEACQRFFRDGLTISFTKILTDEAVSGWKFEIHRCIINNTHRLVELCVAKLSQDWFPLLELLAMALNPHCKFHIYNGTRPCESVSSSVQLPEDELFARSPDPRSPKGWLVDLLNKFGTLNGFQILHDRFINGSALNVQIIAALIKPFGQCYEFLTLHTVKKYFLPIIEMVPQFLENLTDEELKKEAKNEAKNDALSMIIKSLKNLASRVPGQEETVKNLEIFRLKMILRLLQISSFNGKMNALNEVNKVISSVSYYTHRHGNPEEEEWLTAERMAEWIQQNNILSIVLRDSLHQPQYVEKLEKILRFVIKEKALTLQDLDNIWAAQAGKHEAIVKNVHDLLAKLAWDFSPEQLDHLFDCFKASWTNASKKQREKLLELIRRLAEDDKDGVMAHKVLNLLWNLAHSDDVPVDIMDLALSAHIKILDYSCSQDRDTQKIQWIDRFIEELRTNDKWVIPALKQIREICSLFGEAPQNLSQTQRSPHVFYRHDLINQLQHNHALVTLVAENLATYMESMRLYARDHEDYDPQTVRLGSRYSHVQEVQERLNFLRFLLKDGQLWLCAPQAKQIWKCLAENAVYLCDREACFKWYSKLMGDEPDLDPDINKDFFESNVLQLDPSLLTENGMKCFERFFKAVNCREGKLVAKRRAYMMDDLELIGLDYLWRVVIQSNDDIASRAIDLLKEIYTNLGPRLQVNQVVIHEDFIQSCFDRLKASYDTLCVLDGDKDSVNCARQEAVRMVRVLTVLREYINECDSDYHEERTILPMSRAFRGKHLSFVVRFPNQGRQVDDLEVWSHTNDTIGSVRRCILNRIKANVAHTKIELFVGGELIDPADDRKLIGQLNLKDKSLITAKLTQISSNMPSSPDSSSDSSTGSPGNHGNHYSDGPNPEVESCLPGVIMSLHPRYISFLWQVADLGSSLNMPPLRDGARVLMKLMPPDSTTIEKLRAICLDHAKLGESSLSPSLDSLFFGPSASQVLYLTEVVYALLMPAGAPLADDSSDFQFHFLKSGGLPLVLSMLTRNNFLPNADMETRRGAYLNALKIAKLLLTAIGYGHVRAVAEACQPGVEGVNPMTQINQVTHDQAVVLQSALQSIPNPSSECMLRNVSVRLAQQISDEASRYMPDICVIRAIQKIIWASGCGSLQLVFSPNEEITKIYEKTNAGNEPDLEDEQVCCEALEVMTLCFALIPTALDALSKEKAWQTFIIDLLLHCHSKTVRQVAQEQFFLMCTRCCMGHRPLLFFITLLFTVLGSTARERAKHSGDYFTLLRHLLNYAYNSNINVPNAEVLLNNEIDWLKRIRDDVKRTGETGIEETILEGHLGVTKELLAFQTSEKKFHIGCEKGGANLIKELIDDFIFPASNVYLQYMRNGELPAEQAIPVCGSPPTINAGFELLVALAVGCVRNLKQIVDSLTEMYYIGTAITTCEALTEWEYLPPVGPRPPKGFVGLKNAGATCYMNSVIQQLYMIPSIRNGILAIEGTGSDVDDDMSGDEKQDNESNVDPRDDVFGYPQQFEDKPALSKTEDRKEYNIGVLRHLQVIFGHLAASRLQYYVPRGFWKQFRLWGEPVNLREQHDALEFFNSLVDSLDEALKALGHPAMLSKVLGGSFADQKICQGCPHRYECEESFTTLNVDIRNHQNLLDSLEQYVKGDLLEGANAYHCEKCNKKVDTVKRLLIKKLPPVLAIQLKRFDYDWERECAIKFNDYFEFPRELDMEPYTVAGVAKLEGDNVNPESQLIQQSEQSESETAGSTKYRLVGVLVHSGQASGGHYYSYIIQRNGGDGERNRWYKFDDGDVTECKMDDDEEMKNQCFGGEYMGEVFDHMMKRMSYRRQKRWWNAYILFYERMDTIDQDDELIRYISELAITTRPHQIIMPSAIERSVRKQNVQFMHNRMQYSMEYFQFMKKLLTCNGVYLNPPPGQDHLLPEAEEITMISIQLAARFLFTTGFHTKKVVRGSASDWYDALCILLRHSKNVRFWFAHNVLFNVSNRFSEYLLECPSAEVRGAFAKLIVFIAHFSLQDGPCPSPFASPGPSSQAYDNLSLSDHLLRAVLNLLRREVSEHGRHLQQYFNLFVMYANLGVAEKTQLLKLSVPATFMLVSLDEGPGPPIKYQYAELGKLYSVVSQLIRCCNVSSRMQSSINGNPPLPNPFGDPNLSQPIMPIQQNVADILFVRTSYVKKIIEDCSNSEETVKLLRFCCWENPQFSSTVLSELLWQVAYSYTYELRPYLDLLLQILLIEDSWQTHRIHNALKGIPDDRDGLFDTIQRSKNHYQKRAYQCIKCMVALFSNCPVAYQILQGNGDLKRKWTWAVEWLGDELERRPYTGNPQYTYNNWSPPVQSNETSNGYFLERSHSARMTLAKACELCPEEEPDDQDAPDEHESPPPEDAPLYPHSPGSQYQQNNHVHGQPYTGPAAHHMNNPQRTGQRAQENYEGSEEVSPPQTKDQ

Molecule | USP9X IC50/UM
CNCCOc1ccc(C(=O)NCc2cccc(C(=O)N[C@@H](C)C(=O)Nc3ccc(CCC(=O)O)cc3)c2)cc1 [Compound 33] | >50 UM
CC(=O)N[C@@H](CC(C)(C)C)C(=O)Nc1ccc(CCNC(=O)CC(C)(C)CC(=O)NCCOc2ccc(C(=O)NCc3cccc(C(=O)O)c3)cc2)cc1 [Compound 70] | >50 UM
CNCCOc1ccc(C(=O)NCc2cccc(C(=O)N3CCCC3C(=O)Nc3ccc(CCC(=O)O)cc3)c2)cc1 (stereo not drawn) [Compound 36] | >50 UM
CNC(=O)c1cccc(CNC(=O)c2ccc(OCCNC(=O)CC(C)(C)CC(=O)NCCc3ccc(NC(=O)[C@H](CC(C)(C)C)NC(C)=O)cc3)cc2)c1 [Compound 71] | >50 UM
CNC(=O)[C@H](CC(C)(C)C)NC(=O)c1cccc(CNC(=O)c2ccc(OCCNC(=O)CC(C)(C)CC(=O)NCCc3ccc(NC(C)=O)cc3)cc2)c1 [Compound 68] | >50 UM
CNCCOc1ccc(C(=O)NCc2cccc(C(=O)N[C@@H](CC(C)(C)C)C(=O)Nc3ccc(CCC(=O)O)cc3)c2)cc1 [Compound 30] | >50 UM
CC(=O)Nc1ccc(CCNC(=O)CC(C)(C)CC(=O)NCCOc2ccc(C(=O)NCc3cccc(C(=O)N[C@@H](CC(C)(C)C)C(=O)O)c3)cc2)cc1 [Compound 67] | >50 UM
CN(C)CCOc1ccc(C(=O)NCc2cccc(C(=O)N[C@@H](CC(C)(C)C)C(=O)N(C)Cc3ccccc3)c2)cc1 [Compound 26] | >50 UM
CN(C)CCOc1ccc(C(=O)NCc2cccc(C(=O)N[C@@H](CC(C)(C)C)C(=O)NCc3ccccc3F)c2)cc1 [Compound 27] | >50 UM
CC(C)(C)C[C@H](NC(=O)c1cccc(CNC(=O)c2ccc(OCCNC(=O)CC(C)(C)CC(=O)NCCc3ccc(N)cc3)cc2)c1)C(=O)O [Compound 66] | >50 UM
CC(C)(C)C[C@H](N)C(=O)Nc1ccc(CCNC(=O)CC(C)(C)CC(=O)NCCOc2ccc(C(=O)NCc3cccc(C(=O)O)c3)cc2)cc1 [Compound 69] | >50 UM
CNCCOc1ccc(C(=O)NCc2cccc(C(=O)N[C@@H](CC(C)C)C(=O)Nc3ccc(CCC(=O)O)cc3)c2)cc1 [Compound 32] | >50 UM
CNCCOc1ccc(C(=O)NCc2cccc(C(=O)N[C@@H](CC3CCCCC3)C(=O)Nc3ccc(CCC(=O)O)cc3)c2)cc1 [Compound 37] | >50 UM

Same assay, conditions: higher concentrations of compound (>10 μM)

Molecule | reduction of USP9X activity
COCCNC(=O)[C@@H]1Cc2ccc(cc2)NC(=O)[C@H](CC(C)(C)C)NC(=O)c2cccc(c2)CNC(=O)c2ccc(cc2)OCCNC(=O)CC(C)(C)CC(=O)N1 [Compound 3A] | approximately 60%
CC(C)(C)C[C@@H]1NC(=O)c2cccc(c2)CNC(=O)c2ccc(cc2)OCCNC(=O)CCCCC(=O)N[C@H](C(=O)O)Cc2ccc(cc2)NC1=O [Compound 4A] | approximately 60%

Same assay, conditions: read-out: USP9X IC50/UM; Table 8

Molecule | IC50
CN(C)CCOc1ccc(C(=O)NCc2cccc(C(=O)N[C@@H](CC(C)(C)C)C(=O)Nc3ccc(Cn4ccnc4)cc3)c2)cc1 [Compound 11] | 80 nM
CN(C)CCOc1ccc(C(=O)NCc2cccc(C(=O)N[C@@H](CC(C)(C)C)C(=O)Nc3ccc(CCN4CCOCC4)cc3)c2)cc1 [Compound 14] | 120 nM
CNC(=O)CCc1ccc(NC(=O)[C@H](CC(C)(C)C)NC(=O)c2cccc(CNC(=O)c3ccc(OC)cc3)c2)cc1 [Compound 42] | 1300 nM
CNCCOc1ccc(C(=O)NCc2cccc(C(=O)N[C@@H](CC(C)(C)C)C(=O)Nc3ccc(CN4CCCC4)cc3)c2)cc1 [Compound 4] | 54 nM
CN(C)CCOc1ccc(C(=O)NCc2cccc(C(=O)N[C@@H](CC(C)(C)C)C(=O)Nc3ccc(CCN(C)C)cc3)c2)cc1 [Compound 13] | 44 nM
CC(C)(C)C[C@H](NC(=O)c1cccc(CN)c1)C(=O)Nc1ccc(CCNC(=O)CC(C)(C)CC(=O)NCCOc2ccc(C(=O)O)cc2)cc1 [Compound 72] | 29000 nM
Cc1ccc(NC(=O)[C@H](CC(C)(C)C)NC(=O)c2cccc(CNC(=O)c3ccc(OCCN(C)C)cc3)c2)cc1 [Compound 22] | 420 nM
CNCCOc1ccc(C(=O)NCc2cccc(C(=O)N[C@@H](CC(C)(C)C)C(=O)Nc3ccc(CCc4ccccn4)cc3)c2)cc1 [Compound 6] | 700 nM
CC(=O)NCc1cccc(C(=O)N[C@@H](CC(C)(C)C)C(=O)Nc2ccc(CCN(C)C)cc2)c1 [Compound 50] | 2300 nM
CC(=O)NCCc1ccc(NC(=O)[C@H](CC(C)(C)C)NC(=O)c2cccc(CNC(=O)c3ccc(OCCO)cc3)c2)cc1 [Compound 64] | 650 nM
CC(=O)NCc1ccc(F)c(C(=O)N[C@@H](CC(C)(C)C)C(=O)Nc2ccc(CCC(=O)O)cc2)c1 [Compound 60] | 13000 nM
CNC(=O)CCc1ccc(NC(=O)[C@H](CC(C)(C)C)NC(=O)c2cc(CNC(=O)c3ccc(OC)cc3)ccc2F)cc1 [Compound 43] | 760 nM
CC(C)(C)CC(=O)NCCc1ccc(NC(=O)[C@H](CC(C)(C)C)NC(=O)c2cccc(CNC(=O)c3ccc(OCCO)cc3)c2)cc1 [Compound 65] | 600 nM
CNCCOc1ccc(C(=O)NCc2ccc(F)c(C(=O)N[C@@H](CC(C)(C)C)C(=O)Nc3ccc(CCC(=O)O)cc3)c2)cc1 [Compound 53] | 360 nM
CN(C)CCOc1ccc(C(=O)NCc2cccc(C(=O)N[C@@H](CC(C)(C)C)C(=O)Nc3ccc(CCc4ccccn4)cc3)c2)cc1 [Compound 7] | 590 nM
CNCCOc1ccc(C(=O)NCc2cccc(C(=O)N3CCCC3C(=O)Nc3ccc(CCC(=O)O)cc3)c2)cc1 (stereo not drawn) [Compound 35] | 7000 nM
CNCCOc1ccc(C(=O)NCc2cccc(C(=O)N[C@@H](CC(C)(C)C)C(=O)Nc3ccc(CCC(=O)O)cc3)c2)cc1 [Compound 3] | 280 nM
CNC(=O)c1ccc(OCCNC(=O)CC(C)(C)CC(=O)NCCc2ccc(NC(=O)[C@H](CC(C)(C)C)NC(=O)c3cccc(CNC(C)=O)c3)cc2)cc1 [Compound 74] | 12000 nM
CN(C)CCOc1ccc(C(=O)NCc2cccc(C(=O)N[C@@H](CC(C)(C)C)C(=O)Nc3ccc(CN4CCCC4)cc3)c2)cc1 [Compound 5] | 55 nM
CN(C)CCNC(=O)[C@H](CC(C)(C)C)NC(=O)c1cccc(CNC(=O)c2ccc(OCCN(C)C)cc2)c1 [Compound 15] | 23000 nM
CNCCOc1ccc(C(=O)NCc2cccc(C(=O)N[C@@H](CC(C)(C)C)C(=O)Nc3ccc(CC(F)(F)F)cc3)c2)cc1 [Compound 12] | 1300 nM
CN(C)CCOc1ccc(C(=O)NCc2cccc(C(=O)N[C@@H](CC(C)(C)C)C(=O)NCCN3CCCC3)c2)cc1 [Compound 19] | 8000 nM

Molecule | IC50
CNCCOc1ccc(C(=O)NCc2cccc(C(=O)N[C@@H](CC(C)(C)C)C(=O)Nc3ccc(Cn4ccnc4)cc3)c2)cc1 [Compound 10] | 91 nM
CC(C)(C)C[C@H](NC(=O)c1cccc(CNC(=O)c2ccccc2)c1)C(=O)Nc1ccc(CCC(=O)O)cc1 [Compound 57] | 7000 nM
COc1ccc(C(=O)NCc2cccc(C(=O)N[C@@H](CC(C)(C)C)C(=O)Nc3ccc(CCC(=O)O)cc3)c2)cc1 [Compound 55] | 4700 nM
CC(C)(C)C[C@H](NC(=O)c1cccc(CNC(=O)c2ccc(OCCO)cc2)c1)C(=O)Nc1ccccc1 [Compound 61] | 5800 nM
CC(=O)NCc1cccc(C(=O)N[C@@H](CC(C)(C)C)C(=O)Nc2ccc(CCNC(=O)CC(C)(C)CC(=O)NCCOc3ccc(C(=O)O)cc3)cc2)c1 [Compound 73] | 15000 nM
CNC(=O)CCc1ccc(NC(=O)[C@H](CC(C)(C)C)NC(=O)c2cccc(CNC(C)=O)c2)cc1 [Compound 48] | 8900 nM
CN(C)CCOc1ccc(C(=O)NCc2cccc(C(=O)N[C@@H](CC(C)(C)C)C(=O)NCc3ccccn3)c2)cc1 [Compound 28] | 32000 nM
CNC(=O)CCc1ccc(NC(=O)[C@H](CC(C)(C)C)NC(=O)c2cccc(CNC(=O)c3ccccc3)c2)cc1 [Compound 45] | 2100 nM
CC(C)(C)C[C@H](NC(=O)c1cccc(CNC(=O)c2ccc(OCCO)cc2)c1)C(=O)Nc1ccc(CCN)cc1 [Compound 63] | 220 nM
CNC(=O)CCc1ccc(NC(=O)[C@H](CC(C)(C)C)NC(=O)c2cc(CNC(C)=O)ccc2F)cc1 [Compound 49] | 5000 nM
CNCCOc1ccc(C(=O)NCc2cccc(C(=O)N[C@@H](CC(C)(C)C)C(=O)Nc3cccc(Cn4cccn4)c3)c2)cc1 [Compound 8] | 1100 nM
CN(C)CCOc1ccc(C(=O)NCc2cccc(C(=O)N[C@@H](CC(C)(C)C)C(=O)Nc3cccc(Cn4cccn4)c3)c2)cc1 [Compound 9] | 150 nM
CN(C)CCc1ccc(NC(=O)[C@H](CC(C)(C)C)NC(=O)c2cccc(CNC(=O)c3ccccc3)c2)cc1 [Compound 47] | 320 nM
CC(C)(C)C[C@H](NC(=O)c1cc(CNC(=O)c2ccccc2)ccc1F)C(=O)Nc1ccc(CCC(=O)O)cc1 [Compound 58] | 4900 nM
CN(C)CCCNC(=O)[C@H](CC(C)(C)C)NC(=O)c1cccc(CNC(=O)c2ccc(OCCN(C)C)cc2)c1 [Compound 16] | 18000 nM
COC(=O)c1cc(NC(=O)[C@H](CC(C)(C)C)NC(=O)c2cccc(CNC(=O)c3ccc(OCCN(C)C)cc3)c2)ccc1C [Compound 24] | 66 nM
CN(C)CCOc1ccc(C(=O)NCc2cccc(C(=O)N[C@@H](CC(C)(C)C)C(=O)Nc3ccc4nccn4c3)c2)cc1 [Compound 20] | 63 nM
COc1ccc(NC(=O)[C@H](CC(C)(C)C)NC(=O)c2cccc(CNC(=O)c3ccc(OCCN(C)C)cc3)c2)cc1 [Compound 23] | 240 nM
CNCCOc1ccc(C(=O)NCc2cccc(C(=O)N[C@@H](CC(C)C)C(=O)Nc3ccc(CCC(=O)O)cc3)c2)cc1 [Compound 31] | 6000 nM
Cc1ccc(NC(=O)[C@H](CC(C)(C)C)NC(=O)c2cccc(CNC(=O)c3ccc(OCCO)cc3)c2)cc1 [Compound 62] | 6900 nM
CNC(=O)CCc1ccc(NC(=O)[C@H](CC(C)(C)C)NC(=O)c2cc(CNC(=O)c3ccc(OCCN(C)C)cc3)ccc2F)cc1 [Compound 41] | 90 nM
CNCCOc1ccc(C(=O)NCc2cccc(C(=O)N[C@@H](CC(C)(C)C)C(=O)Nc3ccc(CCNC(=O)CC(C)(C)CC(=O)O)cc3)c2)cc1 [Compound 2] | 180 nM

Same assay, conditions: ubiquitin-rhodamine110 substrate

Molecule | effect on USP9X activity
ubiquitin aldehyde [reference compound] | completely abolished
